# Experimental data as given in patent US12303588B2, “Composition containing Cirsium japonicum extract as active ingredient for stimulating melanogenesis” (BIOSPECTRUM, INC., priority 2017, dated 2025).
# Test system: human skin
# Assay: Cumulative skin irritation patch test (safety to the human skin)
# Type: in vivo
# Conditions: 30 adults; for Number of subjects showing response ±: 1st week
# Protocol: In order to identify as to whether the Cirsium japonicum extract is safe or not, a test for identifying the safety to the human skin was performed. For this, a cumulative skin irritation was carried out. A nutritious cream containing 0.1%, 0.5% and 1% of Cirsium japonicum extracts of Example 1, respectively, was prepared. Specifically, purified water, triethanolamine, and propylene glycol were heated and dissolved at a temperature of 70° C. (aqueous phase). Beeswax, liquid paraffin, oily ingredients, emulsifiers and preservatives were heated and dissolved at a temperature of 70° C. (oil phase). The oil phase was added to the aqueous phase to prepare an emulsion. After emulsification was completed, the solution was cooled to 45° C., and Cirsium japonicum extracts were added 0.1%, 0.5% and 1% respectively, dispersed and then cooled to 30° C. As the content of the Cirsium japonicum extract was increased to 0.1%, 0.5% and 1%, the nutritional cream was prepared by reducing the content of the liquid paraffin to 9.91%, 9.51% and 9.01%, respectively. The nourishing cream prepared as described above was applied as a patch to areas of humerus of 30 adults for accumulated 24 hours on alternate day in total 9 times to test as to whether the Cirsium japonicum extract stimulates the skin. The patch used Finn chamber ([…]) and the patch was practiced after dropping with […] of the skin external preparations prepared from the above, respectively. The degree of the reaction represented on the skin in every time was scored by using the below experimental formula 1. Mean reaction degree=[{(reaction index×reaction degree)/(total number of the subject×the highest score (four point))}×100]/times of the test (9times) [Experimental Formula 1] In regard to the response degree, 1 point was provided for ±, 2 points for +, and 4 points for ++. When the mean reaction degree is less than 3, it is considered as being the safe composition.
structure (smiles),measurement,setting,value
"CC(C)=CCC/C(C)=C/CC/C(C)=C/CC/C=C(\C)CC/C=C(\C)CCC=C(C)C [Control group (Squalene), Squalene]",Number of subjects showing response ±,1st application,1
same,Number of subjects showing response ±,2nd application,0
same,Average response degree,"24 h patch on alternate days, 9 times, less than 3 = safe",0.09
